Measurements as given in patent publication US20250154611A1, “SYSTEMS AND METHODS TO DETECT STEM CELL STRESS AND USES THEREOF” (Wayne State University, priority 2014, published 2025).

How the values were obtained:
JNK = experiment: phospho-JNK western blot in mESCs under 200 mM sorbitol; assay type: cell-based, mouse; conditions: persisted throughout 1 hr
Procedure: (§1) FIG. 14. […] Blots are representative of triplicate experiments. Phospho-proteins and their loading controls are grouped between black lines.
FIG. 15. […] Blots are representative of triplicate experiments.
Hyperosmotic activation of signaling enzymes. […] Zhong, 2010; Xie, 2011. […] To determine the kinetics of activation of these five kinases in the described system, mESCs were treated with 200 mM sorbitol for 1 hr. Expression levels of the activated (i.e., phosphorylated) enzymes were assayed by western blot analysis (FIG. 14), including phospho-p38MAPK, phospho-JNK, phospho-MEK1/2, and phospho-AKT (the downstream effector of PI3K signaling).
Efficacy of enzyme inhibitors.

MEK1/2 = experiment: phospho-MEK1/2 western blot in mESCs under 200 mM sorbitol; assay type: cell-based, mouse; conditions: returned to baseline by 20 min
From the text: as §1
Hyperosmotic activation of signaling enzymes. […] Zhong, 2010; Xie, 2011. After screening 21 signaling kinases in 11 subfamilies using 14 inhibitors, 5 kinases in the mitogen activated protein kinase (MAPK) and PI3K families were identified as producing differentiation-priming effects in hyperosmotic conditions. To determine the kinetics of activation of these five kinases in the described system, mESCs were treated with 200 mM sorbitol for 1 hr. Expression levels of the activated (i.e., phosphorylated) enzymes were assayed by western blot analysis (FIG. 14), including phospho-p38MAPK, phospho-JNK, phospho-MEK1/2, and phospho-AKT (the downstream effector of PI3K signaling). Activated p38MAPK was 1st detected at 10 min of stimulation; activation persisted throughout 1 hr of stimulation. Similarly, activated JNK was 1st detected at 20 min of stimulation, and persisted throughout 1 hr of stimulation. Activated MEK1/2 and activated AKT were present endogenously at low levels at time zero; sorbitol stimulated higher activation levels of each.

mESCs = experiment: RT-qPCR of lineage markers Dab2, Lrp2, Fgf5 in mESC monolayer; assay type: cell-based, mouse; conditions: 24 hr
From the text: FIGS. 16A-16E. Hyperosmotic stress in mESCs impacts transcription factor expression at protein and mRNA levels. (FIG. 16A) The inner cell mass (ICM) of the blastocyst coexpresses Oct4/Rex1/Nanog in pluripotent cells at E3.5. After E3.5 a Rex1 subpopulation delaminates from the ICM and expresses primitive endoderm (PrEndo) marker, Lrp2, at E3.5 and extraembryonic endoderm (ExEndo) marker, Dab2, at E4.5. At E4.75, Rex1 decreases in the remaining cells of the ICM and, by E5.5, fibroblast growth factor (FGF)5 is expressed in embryonic ectoderm (EmEcto). […] (FIG. 16C) Total RNA was isolated and subjected to reverse transcription to form complementary DNA (cDNA). Real-time quantitative PCR (RTqPCR) was performed with Oct4, Nanog, and Rex1 primers. Histograms represent relative fold change in mRNA expression using the ddCt method. (FIG. 16D) mESCs in monolayer were incubated±sorbitol and ±LIF for 24 hr. Dab2, Lrp2, and Fgf5 mRNA transcript levels were examined by RT-qPCR. […] Error flags are the standard error of the mean (n=3). “a” indicates significant difference for sorbitol +LIF compared with LIF− at 24 hr. […]
RT-qPCR analysis. mESCs were trypsinized and harvested for RT-Qpcr analysis using a 7500 Fast Real Time PCR System (Applied Biosystems). […] RNA content was measured using ND-1000 Spectrophotometer (NanoDrop and ThermoScientific, Wilmington, DE). Complementary DNA (cDNA) was synthesized from 50 to 100 ng of total RNA using QuantiTect Reverse Transcription Kit (Qiagen) according to the manufacturer's instructions, and diluted 1:5. […]
Primer pairs were checked for specificity using BLAST analysis and were checked by both agarose gel electrophoresis and thermal dissociation curves to ensure amplification of a single product, and to rule out formation of primer dimers during the RT-qPCR. […] The expression of the target genes was quantified against that of two internal reference genes, glyceraldehyde-3-phosphate dehydrogenase (GAPDH) and 18s ribosomal RNA subunit (18s rRNA). […] Fold change was determined using the ddCt method. […]

SAPK = conditions: 100 mM, 20% O2, despite FGF4; cited from earlier work
[1] = 200 mM +LIF, vs time-matched +LIF and -LIF controls

OC[C@@H](O)[C@@H](O)[C@H](O)[C@@H](O)CO [sorbitol]
time at which activated JNK was first detected (JNK): 20 min
time of increased MEK1/2 activation (MEK1/2): ≤ 10 min
Dab2 mRNA expression (mESCs; [1]): significantly higher
Lrp2 mRNA expression (mESCs; [1]): significantly higher
upregulation of EmEcto marker Fgf5 mRNA (mESCs; 200 mM): suppressed
SAPK increase (SAPK): 5 fold
